What was measured:
Format in all cases: physicochemical
[1] = Solubility in water (observation)
[2] = Dynamic surface tension measurements, maximum bubble pressure method; conditions: deionized water, 25° C.
Method: These measurements were conducted with the Krüss PocketDyne BP2100, which utilized the maximum bubble pressure method of surface tension analysis. Surface tension profiles of dimethyl farnesyl amine oxide and diethyl farnesyl amine oxide at the desired concentration were measured in deionized water at 25° C.
The results in table 2 are given in mN/m.

[3] = Determination of wetting ability by immersion (modified EN 1772:2000); conditions: 0.1 wt.-% aqueous solution, room temperature, raw cotton disc, mean of five measurements
Method: This measurement was modified based on the European Standard EN 1772:2000. A 500 mL 0.1 wt.-% aqueous solution of test surfactant was prepared. The test solution was kept at room temperature to stabilize for 1 h. A raw cotton disc (30 mm diameter, wfk Testgewebe GmbH), was clamped in a gripper and immersed in the solution. Stopwatch was started at the moment when the lower part of the disc touched the solution and stopped when the disc began to sink of its own accord. The arithmetic mean of five measurements was calculated and recorded as the wetting time.

[4] = Measurement of foam creation and decay on a SITA foam tester; conditions: 0.01 g/L surfactant solution, 1200 rpm, room temperature, 5 minutes foam creation; listed as dimethyl farnesyl amine oxide
Method: This method monitors foam generation and decay at room temperature over time. A surfactant solution of 0.01 g/L was pumped into the SITA foam tester R2000. The speed of the stirring plate was set to 1200 rpm. Foam creation was recorded in a 10 second interval for 5 minutes and decay was recorded in a 30 second interval for 15 minutes at room temperature.

[5] = CMC (critical micelle concentration) and surface tension measurements, Du Noüy ring method; conditions: 25° C., Krüss Tensiometer K 100 (Ring)
Method: CMC (critical micelle concentration) and surface tension measurements These measurements were conducted with the Krüss Tensiometer K 100 (Ring), which utilized the Du Noüy ring method. Surface tension profiles of the amine oxides were measured at 25° C.

Surface tension at surface age 20 ms ([2]; 0.3 g/L) [mN/m]	Surface tension at surface age 50 ms ([2]; 0.3 g/L) [mN/m]	Surface tension at surface age 100 ms ([2]; 0.3 g/L) [mN/m]	Surface tension at surface age 200 ms ([2]; 0.3 g/L) [mN/m]	Surface tension at surface age 400 ms ([2]; 0.3 g/L) [mN/m]	Surface tension at surface age 20 ms ([2]; 1.0 g/L) [mN/m]	Surface tension at surface age 50 ms ([2]; 1.0 g/L) [mN/m]	Surface tension at surface age 100 ms ([2]; 1.0 g/L) [mN/m]	Surface tension at surface age 200 ms ([2]; 1.0 g/L) [mN/m]	Surface tension at surface age 400 ms ([2]; 1.0 g/L) [mN/m]	Surface tension at surface age 20 ms ([2]; 3.0 g/L) [mN/m]	Surface tension at surface age 50 ms ([2]; 3.0 g/L) [mN/m]	Surface tension at surface age 100 ms ([2]; 3.0 g/L) [mN/m]	Surface tension at surface age 200 ms ([2]; 3.0 g/L) [mN/m]	Surface tension at surface age 400 ms ([2]; 3.0 g/L) [mN/m]	Wetting time [3] [s]	further results	Structure (SMILES)
66.7	65.6	64.3	65.7	65.0	60.0	62.0	57.3	56.0	54.9	55.2	52.7	51.8	50.6	51.6	54	solubility in water [1]: very poor	CC[N+]([O-])(CC)CC=C(C)CCC=C(C)CCC=C(C)C [Diethyl, Diethyl Farnesyl Amine Oxide, reference compound]
59.9	56.9	52.9	51.5	49.5	43.8	40.7	39.3	38.1	36.9	35.3	33.2	32.5	32.1	31.5	28	Foam ability [4]: no foam at all; C20: concentration of surfactant to reduce the surface tension of water by 20 mN/m [5]: 0.018 g/L; CMC [5]: 1.09 g/L; Surface tension [5]: 28.7 mN/m	CC(C)=CCC/C(C)=C/CC/C(C)=C/C[N+](C)(C)[O-] [Dimethyl, Dimethyl Farnesyl Amine Oxide]

From patent US20200002275A1, “Dimethyl Farnesyl Amine Oxide And Its Use As Surfactant Or Wetting Agent” (Clariant International Ltd., priority 2017, published 2020)
